How the values were obtained:
Type in all cases: functional
Staphylococcus aureus [1] = test: Antibacterial activity against clinical isolates of methicillin-resistant Staphylococcus aureus P4629 by broth microdilution assay
Staphylococcus aureus [2] = test: Antibacterial activity against clinical isolates of methicillin-resistant Staphylococcus aureus ST2071 by broth microdilution assay
Staphylococcus aureus [3] = test: Antibacterial activity against clinical isolates of methicillin-resistant Staphylococcus aureus ST10760 by broth microdilution assay
Staphylococcus aureus [4] = test: Antibacterial activity against Staphylococcus aureus MTCC 96 by broth microdilution assay
Staphylococcus aureus [5] = test: Antibacterial activity against clinical isolates of methicillin-resistant Staphylococcus aureus ST10342 by broth microdilution assay
Staphylococcus aureus [6] = test: Antibacterial activity against clinical isolates of methicillin-resistant Staphylococcus aureus P4423 by broth microdilution assay
Staphylococcus aureus [7] = test: Antibacterial activity against clinical isolates of methicillin-resistant Staphylococcus aureus P4650 by broth microdilution assay

Measured: MIC

COc1cc(OC)c([C@@H]2COc3c(cc(/C=C/C(=O)c4ccccc4OC)c4c3C=CC(C)(C)O4)C2)cc1/C=C/C(=O)c1ccccc1OC
50 µg/mL: Staphylococcus aureus [4]
100 µg/mL: all other assays above

CCn1cc(C(=O)O)c(=O)c2cc(F)c(N3CCNCC3)cc21 [NORFLOXACIN]
125 µg/mL: Staphylococcus aureus [7]
250 µg/mL: Staphylococcus aureus [5] | Staphylococcus aureus [6]
1.56 µg/mL: Staphylococcus aureus [4]
500 µg/mL: all other assays above

COc1ccc([C@@H]2COc3c(ccc4c3C=CC(C)(C)O4)C2)c(OC)c1
> 100 µg/mL: all assays above

COc1ccc(C(=O)/C=C/c2cc([C@@H]3COc4c(ccc5c4C=CC(C)(C)O5)C3)c(OC)cc2OC)cc1
50 µg/mL: Staphylococcus aureus [4]
> 100 µg/mL: all other assays above

COc1cc(OC)c([C@@H]2COc3c(cc(/C=C/C(=O)c4cc(OC)c(OC)c(OC)c4)c4c3C=CC(C)(C)O4)C2)cc1/C=C/C(=O)c1cc(OC)c(OC)c(OC)c1
50 µg/mL: Staphylococcus aureus [4]
100 µg/mL: all other assays above

COc1cc(OC)c([C@@H]2COc3c(ccc4c3C=CC(C)(C)O4)C2)cc1C=O
> 100 µg/mL: all assays above

COc1cccc(C(=O)/C=C/c2cc([C@@H]3COc4c(cc(/C=C/C(=O)c5cccc(OC)c5)c5c4C=CC(C)(C)O5)C3)c(OC)cc2OC)c1
> 100 µg/mL: all assays above

COc1ccc([C@@H]2COc3c(cc(/C=C/C(=O)c4ccccc4OC)c4c3C=CC(C)(C)O4)C2)c(OC)c1
25 µg/mL: Staphylococcus aureus [1] | Staphylococcus aureus [4] | Staphylococcus aureus [7]
50 µg/mL: all other assays above

COc1ccc(C(=O)/C=C/c2cc3c(c4c2OC(C)(C)C=C4)OC[C@@H](c2ccc(OC)cc2OC)C3)cc1
> 100 µg/mL: all assays above

COc1cccc(C(=O)/C=C/c2cc3c(c4c2OC(C)(C)C=C4)OC[C@@H](c2ccc(OC)cc2OC)C3)c1
25 µg/mL: all assays above

COc1ccc(C(=O)/C=C/c2cc3c(c4c2OC(C)(C)C=C4)OC[C@@H](c2ccc(OC)cc2OC)C3)c(OC)c1
> 100 µg/mL: all assays above

COc1cc(OC)c([C@@H]2COc3c(cc(C=O)c4c3C=CC(C)(C)O4)C2)cc1C=O
> 100 µg/mL: all assays above

COc1cccc(C(=O)/C=C/c2cc([C@@H]3COc4c(ccc5c4C=CC(C)(C)O5)C3)c(OC)cc2OC)c1
25 µg/mL: Staphylococcus aureus [4]
50 µg/mL: all other assays above

COc1cc(OC)c([C@@H]2COc3c(cc(/C=C/C(=O)c4ccccc4)c4c3C=CC(C)(C)O4)C2)cc1/C=C/C(=O)c1ccccc1
25 µg/mL: all assays above

COc1ccc([C@@H]2COc3c(cc(/C=C/C(=O)c4ccccc4)c4c3C=CC(C)(C)O4)C2)c(OC)c1
25 µg/mL: all assays above

COc1cc(OC)c([C@@H]2COc3c(ccc4c3C=CC(C)(C)O4)C2)cc1/C=C/C(=O)c1ccco1
25 µg/mL: all assays above

COc1ccc([C@@H]2COc3c(cc(/C=C/C(=O)c4ccc[nH]4)c4c3C=CC(C)(C)O4)C2)c(OC)c1
100 µg/mL: Staphylococcus aureus [4]
> 100 µg/mL: all other assays above

COc1ccc(C(=O)/C=C/c2cc([C@@H]3COc4c(cc(/C=C/C(=O)c5ccc(OC)cc5OC)c5c4C=CC(C)(C)O5)C3)c(OC)cc2OC)c(OC)c1
50 µg/mL: all assays above

COc1cc(OC)c([C@@H]2COc3c(ccc4c3C=CC(C)(C)O4)C2)cc1/C=C/C(=O)c1ccccc1
25 µg/mL: all assays above

COc1cc(OC)c([C@@H]2COc3c(ccc4c3C=CC(C)(C)O4)C2)cc1/C=C/C(=O)c1cc(OC)c(OC)c(OC)c1
25 µg/mL: all assays above

COc1cc(OC)c([C@@H]2COc3c(ccc4c3C=CC(C)(C)O4)C2)cc1/C=C/C(=O)c1ccc(OC)c(OC)c1
100 µg/mL: Staphylococcus aureus [4]
> 100 µg/mL: all other assays above

COc1ccc(C(=O)/C=C/c2cc([C@@H]3COc4c(ccc5c4C=CC(C)(C)O5)C3)c(OC)cc2OC)c(OC)c1
12.5 µg/mL: Staphylococcus aureus [4] | Staphylococcus aureus [7]
25 µg/mL: all other assays above

COc1ccc([C@@H]2COc3c(cc(/C=C/C(=O)c4cc(OC)c(OC)c(OC)c4)c4c3C=CC(C)(C)O4)C2)c(OC)c1
25 µg/mL: all assays above

COc1cc(OC)c([C@@H]2COc3c(ccc4c3C=CC(C)(C)O4)C2)cc1/C=C/C(=O)c1ccccc1OC
> 100 µg/mL: all assays above

COc1cc(OC)c([C@@H]2COc3c(ccc4c3C=CC(C)(C)O4)C2)cc1/C=C/C(=O)c1ccc[nH]1
25 µg/mL: Staphylococcus aureus [4]
50 µg/mL: all other assays above

COc1ccc([C@@H]2COc3c(cc(C=O)c4c3C=CC(C)(C)O4)C2)c(OC)c1
> 100 µg/mL: all assays above

COc1cc(OC)c([C@@H]2COc3c(cc(/C=C/C(=O)c4ccc[nH]4)c4c3C=CC(C)(C)O4)C2)cc1/C=C/C(=O)c1ccc[nH]1
50 µg/mL: all assays above

COc1ccc(C(=O)/C=C/c2cc([C@@H]3COc4c(cc(/C=C/C(=O)c5ccc(OC)cc5)c5c4C=CC(C)(C)O5)C3)c(OC)cc2OC)cc1
100 µg/mL: Staphylococcus aureus [4]
> 100 µg/mL: all other assays above
